# In ChEMBL document CHEMBL4229553, “Design, synthesis and in vitro study of densely functionalized oxindoles as potent α-glucosidase inhibitors” (Bioorg Med Chem, 2018):
# Assays:
# Alpha glucosidase = Alpha glucosidase (Homo sapiens, UniProt O43451+P10253+P14410+Q2M2H8); experiment: Inhibition of alpha-glucosidase (unknown origin); type: protein assay
# [1] = Inhibition of yeast alpha-glucosidase using 4-nitrophenyl-alpha-D-glucopyranoside as substrate incubated for 15 mins by spectrophotometric method; design: species or system Saccharomyces cerevisiae
# BHK-21 = experiment: Cytotoxicity against BHK21 cells; type: cell-based, Mesocricetus auratus; conditions: hamster
# yeast alpha-glucosidase = experiment: Ratio of IC50 for BHK21 cells to IC50 for yeast alpha-glucosidase; type: toxicity; conditions: hamster, read-out: Ratio IC50
# Saccharomyces cerevisiae [2] = experiment: Competitive inhibition of yeast alpha-glucosidase assessed as apparent Km for substrate at 2 uM using p-nitrophenyl-alpha-D-glucopyranoside as substrate incubated for 30 mins by Lineweaver-Burk plot method
# Saccharomyces cerevisiae [3] = experiment: Competitive inhibition of yeast alpha-glucosidase assessed as apparent Km for substrate at 6 uM using p-nitrophenyl-alpha-D-glucopyranoside as substrate incubated for 30 mins by Lineweaver-Burk plot method
# Saccharomyces cerevisiae [4] = experiment: Competitive inhibition of yeast alpha-glucosidase assessed as Vmax for substrate at 4 uM using p-nitrophenyl-alpha-D-glucopyranoside as substrate incubated for 30 mins by Lineweaver-Burk plot method
# Saccharomyces cerevisiae [5] = experiment: Competitive inhibition of yeast alpha-glucosidase assessed as Vmax for substrate at 10 uM using p-nitrophenyl-alpha-D-glucopyranoside as substrate incubated for 30 mins by Lineweaver-Burk plot method
# Saccharomyces cerevisiae [6] = experiment: Competitive inhibition of yeast alpha-glucosidase assessed as Vmax for substrate at 6 uM using p-nitrophenyl-alpha-D-glucopyranoside as substrate incubated for 30 mins by Lineweaver-Burk plot method
# Saccharomyces cerevisiae [7] = experiment: Competitive inhibition of yeast alpha-glucosidase assessed as apparent Km for substrate at 4 uM using p-nitrophenyl-alpha-D-glucopyranoside as substrate incubated for 30 mins by Lineweaver-Burk plot method
# Saccharomyces cerevisiae [8] = experiment: Competitive inhibition of yeast alpha-glucosidase assessed as Vmax for substrate at 8 uM using p-nitrophenyl-alpha-D-glucopyranoside as substrate incubated for 30 mins by Lineweaver-Burk plot method
# Saccharomyces cerevisiae [9] = experiment: Competitive inhibition of yeast alpha-glucosidase assessed as apparent Km for substrate at 8 uM using p-nitrophenyl-alpha-D-glucopyranoside as substrate incubated for 30 mins by Lineweaver-Burk plot method
# Saccharomyces cerevisiae [10] = experiment: Competitive inhibition of yeast alpha-glucosidase assessed as Vmax for substrate at 2 uM using p-nitrophenyl-alpha-D-glucopyranoside as substrate incubated for 30 mins by Lineweaver-Burk plot method
# Saccharomyces cerevisiae [11] = experiment: Competitive inhibition of yeast alpha-glucosidase assessed as apparent Km for substrate at 10 uM using p-nitrophenyl-alpha-D-glucopyranoside as substrate incubated for 30 mins by Lineweaver-Burk plot method
# [12] = Inhibition of yeast alpha-glucosidase using nitrophenol-D-glucopyranoside as substrate incubated for 15 mins; design: species or system Saccharomyces cerevisiae
smiles,measurement,setting,value
Nc1ccn(C2OC(CO)[C@@H](O)[C@H]2O)c(=O)n1 (stereo not given in full),IC50,Alpha glucosidase,2.5 µM
Cc1cc(/C(O)=C2/C(=O)N(C)c3ccc(Br)cc32)c(C(=O)N2CCCCC2)c(=O)[nH]1,IC50,[1],6.41 µM
CCC1NC(CC)C(O)C(O)C1O (stereo not given),IC50,Alpha glucosidase,10 µM
Cc1cc2c(c(=O)[nH]1)C(=O)OC2C1(O)C(=O)N(C)c2ccc(Br)cc21 (stereo not given),IC50,[1],36.1 µM
C[C@H]1O[C@H](O[C@H]2[C@H](O)[C@@H](O)[C@@H](O[C@H]3[C@H](O)[C@@H](O)C(O)O[C@@H]3CO)O[C@@H]2CO)[C@H](O)[C@@H](O)[C@@H]1N[C@H]1C=C(CO)[C@@H](O)[C@H](O)[C@H]1O (stereo not given in full) [ACARBOSE],IC50,[1],4.02 µM
Cc1cc(C(=O)C2C(=O)N(Cc3ccccc3)c3ccc(F)cc32)c(C(=O)N2CCCCC2)c(=O)[nH]1 (stereo not given),IC50,[1],8.21 µM
Cc1cc2c(c(=O)[nH]1)C(=O)O/C2=C1\C(=O)Nc2ccccc21,IC50,[1],47.2 µM
Cc1cc(/C(O)=C2/C(=O)Nc3ccc(Br)cc32)c(C(=O)N2CCCCC2)c(=O)[nH]1,IC50,[1],2.03 µM
same,Activity,BHK-21,Non-Toxic
same,selectivity ratio,yeast alpha-glucosidase,100
Cc1cc(C(=O)C2C(=O)Nc3ccc([N+](=O)[O-])cc32)c(C(=O)N2CCCCC2)c(=O)[nH]1 (stereo not given),IC50,[1],4.56 µM
Cc1cc(C(=O)C2C(=O)N(C)c3ccc(F)cc32)c(C(=O)N2CCCCC2)c(=O)[nH]1 (stereo not given),IC50,[1],10 µM
Cc1cc(C(=O)C2C(=O)N(Cc3ccccc3)c3ccc(Br)cc32)c(C(=O)N2CCCCC2)c(=O)[nH]1 (stereo not given),IC50,[1],2.21 µM
same,Activity,BHK-21,Non-Toxic
same,selectivity ratio,yeast alpha-glucosidase,100
Cc1cc2c(c(=O)[nH]1)C(=O)O/C2=C1\C(=O)Nc2ccc(Br)cc21,IC50,[1],33 µM
Cc1cc(C(=O)C2C(=O)N(Cc3ccccc3)c3ccccc32)c(C(=O)N2CCCCC2)c(=O)[nH]1 (stereo not given),IC50,[1],3.01 µM
Cc1cc2c(c(=O)[nH]1)C(=O)OC2C1(O)C(=O)N(Cc2ccccc2)c2ccc(Br)cc21 (stereo not given),IC50,[1],42.5 µM
Cc1cc(C(=O)C2C(=O)Nc3ccc(F)cc32)c(C(=O)N2CCCCC2)c(=O)[nH]1 (stereo not given),IC50,[1],0.646 µM
same,Km,Saccharomyces cerevisiae [2],1.64 µM
same,Km,Saccharomyces cerevisiae [3],1.8 µM
same,Activity,BHK-21,Non-Toxic
same,Vmax,Saccharomyces cerevisiae [4],40 µM/min
same,Vmax,Saccharomyces cerevisiae [5],40 µM/min
same,Vmax,Saccharomyces cerevisiae [6],40 µM/min
same,Km,Saccharomyces cerevisiae [7],1.79 µM
same,Vmax,Saccharomyces cerevisiae [8],41.6 µM/min
same,selectivity ratio,yeast alpha-glucosidase,100
same,Km,Saccharomyces cerevisiae [9],2.54 µM
same,Vmax,Saccharomyces cerevisiae [10],41.6 µM/min
same,Km,Saccharomyces cerevisiae [11],2.92 µM
Cc1cc(C(=O)C2C(=O)Nc3ccccc32)c(C(=O)N2CCCC2)c(=O)[nH]1 (stereo not given),IC50,[1],2.61 µM
same,Activity,BHK-21,Non-Toxic
same,selectivity ratio,yeast alpha-glucosidase,100
Cc1cc(C(=O)C2C(=O)Nc3ccccc32)c(C(=O)N2CCCCC2)c(=O)[nH]1 (stereo not given),IC50,[1],2.67 µM
same,Activity,BHK-21,Non-Toxic
same,selectivity ratio,yeast alpha-glucosidase,100
Cc1cc2c(c(=O)[nH]1)C(=O)O/C2=C/c1cc(Br)cs1,IC50,[12],0.24 µM
Cc1cc2c(c(=O)[nH]1)C(=O)OC2C1(O)C(=O)N(C)c2ccccc21 (stereo not given),IC50,[1],27.6 µM
Cc1cc(C(=O)C2C(=O)N(C)c3ccccc32)c(C(=O)N2CCCCC2)c(=O)[nH]1 (stereo not given),IC50,[1],10.2 µM
